Patent EP0414533A1, “Use of iodopropargyl esters of alpha-amino acid derivatives as antimicrobial agents” (ROHM AND HAAS COMPANY, priority 1989, dated 1991)
In brackets after ≈: the same amount, converted by molar mass. Like-named read-outs stand apart in the source and are kept apart here.

Columns and labels:
Format in all cases: cell-based
Rhizoctonia solani (RHI) = experiment: In-vitro plant fungicide test; conditions: Rhizoctonia solani
[1] = test system: Cochliobolus sativus (HEL); experiment: In-vitro plant fungicide test; conditions: Bipolaris sorokiniana
ALT = experiment: In-vitro plant fungicide test; conditions: Table IVb, read-out: % Control at (ppm) indicated ALT
Pythium ultimum (PYU) = experiment: In-vitro plant fungicide test; conditions: Globisporangium ultimum
UST = experiment: In-vitro plant fungicide test; conditions: Table IVb, read-out: % Control at (ppm) indicated UST
MON = experiment: In-vitro plant fungicide test; conditions: Table IVb, read-out: % Control at (ppm) indicated MON
PSH = experiment: In-vitro plant fungicide test; conditions: Table IVb, read-out: % Control at (ppm) indicated PSH
THREE FUNGI = experiment: MIC test against three fungi in Mycophile Broth, pH 5.0, read after 8 days (Table VII); conditions: 192 h, serial dilutions from 50 ppm, read after 8 days of incubation
[2] = test system: Xanthomonas campestris (XAN); experiment: In-vitro plant fungicide test; set-up: inhibition of growth: concentration or dose not given beside the values; conditions: Xanthomonas campestris
Septoria nodorum (SEP) = experiment: In-vitro plant fungicide test; conditions: Parastagonospora nodorum
[3] = Table IVb, read-out: % Control at (ppm) indicated XAN

CC(C)(C)OC(=O)NCC(=O)OCC#CI [Compound 1, N-t-butoxycarbonylglycine iodopropargyl ester]
inhibition of growth at 1.5 ppm (Rhizoctonia solani (RHI); 1.5 ppm, Table IVb, read-out: % Control at (ppm) indicated RHI): 100% | inhibition of growth at 6 ppm (Rhizoctonia solani (RHI); 6 ppm, Table IVb, read-out: % Control at (ppm) indicated RHI): 100% | inhibition of growth at 25 ppm (Rhizoctonia solani (RHI); Table IVa, read-out: % Control at 25 ppm RHI): 100% | inhibition of growth at 25 ppm (Rhizoctonia solani (RHI); Table IVb, read-out: % Control at (ppm) indicated RHI): 100% | inhibition of growth at 0.2 ppm (Rhizoctonia solani (RHI); .2 ppm, Table IVb, read-out: % Control at (ppm) indicated RHI): 0% | inhibition of growth at 0.4 ppm (Rhizoctonia solani (RHI); .4 ppm, Table IVb, read-out: % Control at (ppm) indicated RHI): 75% | inhibition of growth at 0.8 ppm (Rhizoctonia solani (RHI); .8 ppm, Table IVb, read-out: % Control at (ppm) indicated RHI): 100% | inhibition of growth at 1.5 ppm ([1]; 1.5 ppm, Table IVb, read-out: % Control at (ppm) indicated HEL): 0% | inhibition of growth at 6 ppm ([1]; 6 ppm, Table IVb, read-out: % Control at (ppm) indicated HEL): 75% | inhibition of growth at 25 ppm ([1]; Table IVa, *=Phytotoxic, read-out: % Control at 25 ppm HEL): 100% | inhibition of growth at 25 ppm ([1]; Table IVb, read-out: % Control at (ppm) indicated HEL): 100% | inhibition of growth at 0.2 ppm ([1]; .2 ppm, Table IVb, read-out: % Control at (ppm) indicated HEL): 0% | inhibition of growth at 0.4 ppm ([1]; .4 ppm, Table IVb, read-out: % Control at (ppm) indicated HEL): 0% | inhibition of growth at 0.8 ppm ([1]; .8 ppm, Table IVb, read-out: % Control at (ppm) indicated HEL): 0% | inhibition of growth at 1.5 ppm (ALT; 1.5 ppm): 0% | inhibition of growth at 3 ppm (ALT; 3 ppm): 50% | inhibition of growth at 6 ppm (ALT; 6 ppm): 50% | inhibition of growth at 12 ppm (ALT; 12 ppm): 100% | inhibition of growth at 25 ppm (ALT; 25 ppm): 100% | inhibition of growth at 0.2 ppm (ALT; .2 ppm): 0% | inhibition of growth at 0.4 ppm (ALT; .4 ppm): 0% | inhibition of growth at 0.8 ppm (ALT; .8 ppm): 0% | inhibition of growth at 1.5 ppm (Pythium ultimum (PYU); 1.5 ppm, Table IVb, read-out: % Control at (ppm) indicated PYU): 100% | inhibition of growth at 6 ppm (Pythium ultimum (PYU); 6 ppm, Table IVb, read-out: % Control at (ppm) indicated PYU): 100% | inhibition of growth at 25 ppm (Pythium ultimum (PYU); Table IVa, read-out: % Control at 25 ppm PYU): 100% | inhibition of growth at 25 ppm (Pythium ultimum (PYU); Table IVb, read-out: % Control at (ppm) indicated PYU): 100% | inhibition of growth at 0.2 ppm (Pythium ultimum (PYU); .2 ppm, Table IVb, read-out: % Control at (ppm) indicated PYU): 0% | inhibition of growth at 0.4 ppm (Pythium ultimum (PYU); .4 ppm, Table IVb, read-out: % Control at (ppm) indicated PYU): 0% | inhibition of growth at 0.8 ppm (Pythium ultimum (PYU); .8 ppm, Table IVb, read-out: % Control at (ppm) indicated PYU): 0% | inhibition of growth at 1.5 ppm (UST; 1.5 ppm): 100% | inhibition of growth at 3 ppm (UST; 3 ppm): 100% | inhibition of growth at 6 ppm (UST; 6 ppm): 100% | inhibition of growth at 12 ppm (UST; 12 ppm): 100% | inhibition of growth at 25 ppm (UST; 25 ppm): 100% | inhibition of growth at 0.2 ppm (UST; .2 ppm): 0% | inhibition of growth at 0.4 ppm (UST; .4 ppm): 0% | inhibition of growth at 0.8 ppm (UST; .8 ppm): 50% | inhibition of growth at 1.5 ppm (MON; 1.5 ppm): 75% | inhibition of growth at 6 ppm (MON; 6 ppm): 100% | inhibition of growth at 25 ppm (MON; 25 ppm): 100% | inhibition of growth at 0.2 ppm (MON; .2 ppm): 0% | inhibition of growth at 0.4 ppm (MON; .4 ppm): 0% | inhibition of growth at 0.8 ppm (MON; .8 ppm): 0% | inhibition of growth at 1.5 ppm (PSH; 1.5 ppm): 100% | inhibition of growth at 6 ppm (PSH; 6 ppm): 100% | inhibition of growth at 25 ppm (PSH; 25 ppm): 100% | inhibition of growth at 0.2 ppm (PSH; .2 ppm): 0% | inhibition of growth at 0.4 ppm (PSH; .4 ppm): 0% | inhibition of growth at 0.8 ppm (PSH; .8 ppm): 75% | MIC (THREE FUNGI; Aspergillus niger, read-out: MIC ANIG): 3.2 µg/mL (≈ 9.44 µM) | MIC (THREE FUNGI; Aureobasidium pullulans, read-out: MIC APUL): 12.5 µg/mL (≈ 36.9 µM) | MIC (THREE FUNGI; Gloeophyllum trabeum, read-out: MIC GTRA): 1.6 µg/mL (≈ 4.72 µM) | inhibition of growth at 1.5 ppm ([2]; 1.5 ppm, Table IVb, read-out: % Control at (ppm) indicated XAN): 0% | inhibition of growth at 3 ppm ([2]; 3 ppm, Table IVb, read-out: % Control at (ppm) indicated XAN): 0% | inhibition of growth at 6 ppm ([2]; 6 ppm, Table IVb, read-out: % Control at (ppm) indicated XAN): 0% | inhibition of growth at 25 ppm ([2]; Table IVa, read-out: % Control at 25 ppm XAN): 0% | inhibition of growth at 25 ppm [2, 3]: 0% | inhibition of growth at 0.2 ppm ([2]; .2 ppm, Table IVb, read-out: % Control at (ppm) indicated XAN): 0% | inhibition of growth at 0.4 ppm ([2]; .4 ppm, Table IVb, read-out: % Control at (ppm) indicated XAN): 0% | inhibition of growth at 0.8 ppm ([2]; .8 ppm, Table IVb, read-out: % Control at (ppm) indicated XAN): 0% | inhibition of growth [2, 3]: 0% | inhibition of growth at 1.5 ppm (Septoria nodorum (SEP); 1.5 ppm, Table IVb, read-out: % Control at (ppm) indicated SEP): 0% | inhibition of growth at 6 ppm (Septoria nodorum (SEP); 6 ppm, Table IVb, read-out: % Control at (ppm) indicated SEP): 100% | inhibition of growth at 25 ppm (Septoria nodorum (SEP); Table IVa, read-out: % Control at 25 ppm SEP): 100% | inhibition of growth at 25 ppm (Septoria nodorum (SEP); Table IVb, read-out: % Control at (ppm) indicated SEP): 100% | inhibition of growth at 0.2 ppm (Septoria nodorum (SEP); .2 ppm, Table IVb, read-out: % Control at (ppm) indicated SEP): 0% | inhibition of growth at 0.4 ppm (Septoria nodorum (SEP); .4 ppm, Table IVb, read-out: % Control at (ppm) indicated SEP): 0% | inhibition of growth at 0.8 ppm (Septoria nodorum (SEP); .8 ppm, Table IVb, read-out: % Control at (ppm) indicated SEP): 0%
